# Measured values taken from patent US20230045421A1 (priority 2018, published 2023).
# Where two headings read alike, the source gives them in different places.
# System: HBV rcDNA
# Assay: HepDE19 assay with bDNA quantitation of HBV rcDNA
# Format: cell-based, hepatitis B virus
# Summary of the method: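 Compounds, top concentration 25 μM in 8-point duplicate series, were applied to Tet-free HepDE19 cultures for 7 days. Branched-DNA quantitation of HBV rcDNA against untreated wells gave EC50 and EC90 by 4-parameter fit. Viability (CC50) came from ATP luminescence on parallel plates incubated 4 days.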
# [1] = HepDE19 assay, inhibition of formation of rcDNA; read-out: DE-19bDNA EC50
# [2] = HepDE19 assay, inhibition of formation of relaxed circular DNA (rcDNA), bDNA quantitation; read-out: DE-19bDNA EC50
# [3] = Hepatitis B virus, HepDE19, HepDE19 assay, inhibition of formation of relaxed circular DNA (rcDNA), bDNA quantitation; read-out: DE-19bDNA EC50
Structure (SMILES),EC50 [1] [µM],EC50 [2] [µM],further results
"CC(c1cnc(NCc2ncn(C)n2)c2ccccc12)N(C)C(=O)Nc1ccc(F)c(Cl)c1 (single isomer, unassigned) [Compound 246, 3-(3-Chloro-4-fluorophenyl)-1-methyl-1-(1-(1-(((1-methyl-1H-1,2,4-triazol-3-yl)methyl)amino)isoquinolin-4-yl)ethyl)urea]",0.14,–,–
"CCN(C(=O)Nc1ccc(F)cc1)C(C)c1c[nH]c(=O)c2c(F)c(F)ccc12 (single isomer, unassigned) [Compound 464, 1-(1-(7,8-Difluoro-1-oxo-1,2-dihydroisoquinolin-4-yl)ethyl)-1-ethyl-3-(4-fluorophenyl)urea]",–,2.9,–
"COc1ncc(C(C)N(CC2CC2)C(=O)Nc2ccc(F)c(Cl)c2)c2ccccc12 (single isomer, unassigned) [Compound 63, 3-(3-Chloro-4-fluorophenyl)-1-(cyclopropylmethyl)-1-(1-(1-methoxyisoquinolin-4-yl)ethyl)urea]",5.8,–,–
"CC(c1c[nH]c(=O)c2cc(F)c(F)cc12)N(C)C(=O)Nc1cc(Cl)c(F)c(Cl)c1 (single isomer, unassigned) [Compound 438, 3-(3,5-Dichloro-4-fluorophenyl)-1-(1-(6,7-difluoro-1-oxo-1,2-dihydroisoquinolin-4-yl)ethyl)-1-methylurea]",–,6.5,–
"CCn1cc(C(C)N(C)C(=O)Nc2ccc(F)c(Cl)c2)c2ccccc2c1=O (single isomer, unassigned) [Compound 184, 3-(3-Chloro-4-fluorophenyl)-1-(1-(2-ethyl-1-oxo-1,2-dihydroisoquinolin-4-yl)ethyl)-1-methylurea]",0.09,–,–
"CC(c1c[nH]c(=O)c2cc(F)c(F)cc12)N(C)C(=O)Nc1ccnc(Cl)c1 (single isomer, unassigned) [Compound 418, 3-(2-Chloropyridin-4-yl)-1-(1-(6,7-difluoro-1-oxo-1,2-dihydroisoquinolin-4-yl)ethyl)-1-methylurea]",–,10,–
"CC(c1cnc(OCc2ncn(C)n2)c2cc(F)c(F)cc12)N(CCCO)C(=O)Nc1ccc(F)c(Cl)c1 (single isomer, unassigned) [Compound 349, 3-(3-chloro-4-fluorophenyl)-1-(1-(6,7-difluoro-1-((1-methyl-1H-1,2,4-triazol-3-yl)methoxy)isoquinolin-4-yl)ethyl)-1-(3-hydroxypropyl)urea]",–,0.005,–
"CC(c1cnc(-n2cncn2)c2ccccc12)N(C)C(=O)Nc1ccc(F)c(Cl)c1 (racemic) [Compound 297, 1-(1-(1-(1H-1,2,4-triazol-1-yl)isoquinolin-4-yl)ethyl)-3-(3-chloro-4-fluorophenyl)-1-methylurea]",–,–,EC50 [3]: 0.18 µM
"CC(c1c[nH]c(=O)c2ccccc12)N(C[C@H]1CCCO1)C(=O)Nc1ccc(F)c(Cl)c1 (single isomer, unassigned) [Compound 155]",7.7,–,–
"COCCN(C(=O)Nc1ccc(F)c(Cl)c1)C(C)c1c[nH]c(=O)c2ccccc12 (single isomer, unassigned) [Compound 66, 3-(3-Chloro-4-fluorophenyl)-1-(2-methoxyethyl)-1-(1-(1-oxo-1,2-dihydroisoquinolin-4-yl)ethyl)urea]",–,–,"EC50 (read-out: DE-19bDNA EC50; HepDE19 assay, inhibition of formation of rcDNA): 0.09 µM"
CC(c1c[nH]c(=O)c2ccccc12)N(CC1CCOC1)C(=O)Nc1ccc(F)c(Cl)c1 (stereo not shown) [Compound 165],–,–,"EC50 (Hepatitis B virus, HepDE19, HepDE19 assay, inhibition of formation of rcDNA; read-out: DE-19bDNA EC50): 1.4 µM"
"CC(c1c[nH]c(=O)c2cnccc12)N(CCCO)C(=O)Nc1ccc(F)c(Cl)c1 (single isomer, unassigned) [Compound 251, 3-(3-Chloro-4-fluorophenyl)-1-(3-hydroxypropyl)-1-(1-(1-oxo-1,2-dihydro-2,7-naphthyridin-4-yl)ethyl)urea]",15,–,–
"CC(c1c[nH]c(=O)c2ccccc12)N(C)C(=O)NC1CCCC1 (single isomer, unassigned) [Compound 299, 3-Cyclopentyl-1-methyl-1-(1-(1-oxo-1,2-dihydroisoquinolin-4-yl)ethyl)urea]",–,–,EC50 [3]: 8.6 µM
